# Structures can show the parent of a compound that is named as a salt.
# What was measured:
# [1] = tested on: mouse allogenic MLR (BALB/c mouse spleen cells stimulated with C57BL/6 mouse spleen cells); test: mouse allogenic mixed lymphocyte reaction (MLR), 3H-thymidine uptake; type: cell-based
# Procedure: The immunosuppressive activity of the compounds was assayed on the basis of mouse allogenic mixed lymphocyte reaction (hereinafter sometimes abbreviated as MLR). Mouse allogenic MRL was carried out using a mixed culture of BALB/c mouse (H-2^d) spleen cells as the responder cells and mitomycin C-treated C57BL/6 ([…]) mouse spleen cells as the stimulator cells in equal amounts.
# The responder cells were prepared as follows:
# The spleen was resected from 5- to 6-week-old BALB/c mice, and single cell suspension of spleen cells was prepared by using the RPMI1640 culture medium (containing 60 μg/ml of kanamycin sulfate, 2 mM of L-glutamine, 10 mM of N-2-hydroxyethylpiperazine-N'-2-ethanesulphonate (HEPES) and 0.1% sodium hydrogencarbonate) to which heat-inactivated fetal calf serum (hereinafter sometimes abbreviated as FCS) had been added to 5%. After hemolytic treatment, the cell suspension was adjusted to a concentration of 10^7 cells/ml with the RPMI1640 culture medium supplemented with 10^-4 M 2-mercapto-ethanol and 20% FCS, and was used as the responder cell suspension.
# The stimulator cells were prepared as follows: The spleen was resected from 5- to 6-week-old male C57BL/6 mice, and a single cell suspension of spleen cells was prepared by using the RPMI1640 culture medium. After hemolytic treatment, the cells were treated with 40 μg/ml of mitomycin C at 37° C. for 60 minutes. After washing three times, the cell suspension was adjusted to a concentration of 10^7 cells/ml with the RPMI1640 culture medium supplemented with 10^-4 M 2-mercapto-ethanol and 20% FCS, and was used as the stimulator cell suspension.
# The blastogenesis of lymphocytes was assayed using ^3 H-thymidine uptake as an index. That is, after termination of culture, 18.5 KBq/well of ^3 H-thymidine was added thereto and the suspension was cultured for 4 hours. Cells were harvested by a cell-harvester, and the radioactivity incorporated into the cells was determined by a liquid scintillation counter, which was used as an index of blastogenesis of lymphocytes in the mouse allogenic MLR. The suppression of the mouse allogenic MLR was evaluated by calculating the percent suppression by the following formula.
# The test substance dissolved in methanol was diluted with the RPMI1640 culture medium and put to use.
# [2] = tested on: IL-2 production in PHA-stimulated mouse spleen cells; test: suppression of IL-2 production in PHA-stimulated mouse spleen cells; type: cell-based
# Procedure: (§1) The suppression of IL-2 and IL-3 production in the mitogen-stimulated mouse spleen cells was examined as follows:
# (§2) The spleen was resected from 5- to 8-week-old male C3H/HeN mice, and a single cell suspension of spleen cells was prepared by using the RPMI1640 culture medium. After hemolytic treatment, the concentration of the suspension was adjusted to 10^7 cells/ml by using the RPMI1640 culture medium supplemented with 20% FCS, to which 10 μg/ml of phytohemagglutinin (PHA) was added as mitogen. […] After termination of culture, the supernatant was collected and used as the culture supernatant of PHA-stimulated mouse spleen cells.
# The IL-2 activity in the culture supernatant of PHA-stimulated mouse spleen cells was assayed as follows:
# IL-2 dependent mouse cell line CTLL-2 cells were suspended in the RPMI1640 culture medium supplemented with 30% FCS to the concentration of 2×10^5 cells/ml. One hundred μl of the cell suspension and 100 μl of the two-fold serial dilution of the culture supernatant of PHA-stimulated mouse spleen cells were added to a 96-well flat-bottomed microtest plate. […] The IL-2 activity is expressed in U/ml as the dilution at which the absorbancy measured by MTT method was 50% of the maximum.
# [3] = tested on: IL-3 production in PHA-stimulated mouse spleen cells; test: suppression of IL-3 production in PHA-stimulated mouse spleen cells; type: cell-based
# Procedure: as §1, §2
# The IL-3 activity was assayed as follows:
# IL-3-dependent mouse cell line FDC-P2 cells were suspended in the RPMI1640 culture medium supplemented with 10% FCS to the concentration of 2×10^5 cells/ml. One hundred μl of the cell suspension and 100 μl of the two-fold serial dilution of the culture supernatant of PHA-stimulated mouse spleen cells described above were added to a 96-well flat-bottomed microtest plate. […] The IL-3 activity is expressed in U/ml as the dilution at which the absorbancy measured by MTT method was 50% of the maximum.
# [4] = tested on: allo-reactive cytotoxic T cells in spleen of EL4-immunized BALB/c mice; test: suppression of allo-reactive cytotoxic T cells induced by immunization of mouse with allogenic cells; type: in vivo; settings: Table 9F
# Procedure: Male 5- to 7-week-old BALB/c mice (H-2^d) were immunized with leukemia cell EL4 derived from C57BL/6 mice (H-2^b) (10^7 cells/mouse, intraperitoneal administration), and the test substance was administered intraperitoneally 5 times at the doses of 0.001 to 3 mg/kg/day or orally at the doses of 0.3 to 10 mg/kg/day from the day of immunization. Nine to ten days after immunization, the spleen was resected from the mice to prepare a single cell suspension and the suspension was used as effector cell suspension. The ^51 Cr-release assay was carried out in the same way as in Experiment Example 3, using EL4 cells as the target cells to measure the cytotoxic activity.
# The activity of allo-reactive cytotoxic T cell is indicated by lytic unit (LU) per spleen. One lytic unit (LU) is defined as the number of effector cells required to cause 25% lysis of 5×10^3 target cells. At the same time, the body weight of mouse and number of spleen cells were also determined.
# [5] = tested on: allo-specific cytotoxic antibody in serum of EL4-immunized BALB/c mice; test: suppression of allo-specific cytotoxic antibody production induced by allogenic cell immunization of mouse; type: in vivo
# Procedure: Male 5- to 7-week-old BALB/c mice were immunized with leukemia cell EL4 derived from C57BL/6 mice (10^7 cells/mouse, intraperitoneal administration) in the same way as in Experiment Example 9, and the […] Nine to ten days after immunization, a serum was collected from the mice. Fifty μl of the two-fold serial dilution of the serum, 50 μl of a guinea pig complement and EL4 cell suspension labelled with ^51 Cr as the target cell (5×10^4 cells/ml, 100 μl) were together added to a 96-well microtest plate. After incubation at 37° C. for 1 hour, the amount of ^51 Cr released in the supernatant was measured, and the complement-dependent cytotoxicity was calculated by the following formula. [formula]
# The value of allo-specific cytotoxic antibody determined as above was expressed by the titer calculated on the basis of the concentration at which the releasing amount of ^51 Cr was 50% of that of ^51 Cr-labelled target cells treated with 0.1 N HCl.
# [6] = Mus musculus, 24 h, 0.001 μg/ml, read-out: Suppression
# [7] = Mus musculus, 24 h, 0.01 μg/ml, read-out: Suppression
# [8] = Mus musculus, 24 h, 0.1 μg/ml, read-out: Suppression
# [9] = Mus musculus, 24 h, 1 μg/ml, read-out: Suppression
# [10] = 0.003 mg/kg/day iv × 9, Table 10F
# [11] = 0.01 mg/kg/day iv × 9, Table 10F
# [12] = 0.03 mg/kg/day ip × 5, Table 10E
# [13] = 0.03 mg/kg/day iv × 9, Table 10F
# [14] = 0.1 mg/kg/day ip × 5, Table 10E
# [15] = 0.1 mg/kg/day iv × 9, Table 10F
# [16] = 0.3 mg/kg/day ip × 5, Table 10E
# [17] = 0.3 mg/kg/day iv × 9, Table 10F
smiles,measurement,setting,value
N[C@](CO)(C(=O)O)[C@@H](O)[C@H](O)CCO [Example 6],3H-thymidine uptake,"[1]; 0.0001 μg/ml, Table 1A",16771 cpm
same,3H-thymidine uptake,"[1]; 0.001 μg/ml, Table 1A",13692 cpm
same,3H-thymidine uptake,"[1]; 0.01 μg/ml, Table 1A",13806 cpm
same,3H-thymidine uptake,"[1]; 0.1 μg/ml, Table 1A",14508 cpm
same,3H-thymidine uptake,"[1]; 1 μg/ml, Table 1A",7545 cpm
same,inhibition at 0.0001 µg/mL,"[1]; Mus musculus, Lymphocyte, 0.0001 μg/ml, Table 1A, read-out: Suppression",9.9%
same,inhibition at 0.001 µg/mL,"[1]; Mus musculus, Lymphocyte, 0.001 μg/ml, Table 1A, read-out: Suppression",18.5%
same,inhibition at 0.01 µg/mL,"[1]; Mus musculus, Lymphocyte, 0.01 μg/ml, Table 1A, read-out: Suppression",27.5%
same,inhibition at 0.1 µg/mL,"[1]; Mus musculus, Lymphocyte, 0.1 μg/ml, Table 1A, read-out: Suppression",23.4%
same,inhibition at 1 µg/mL,"[1]; Mus musculus, Lymphocyte, 1 μg/ml, Table 1A, read-out: Suppression",64.8%
same,IC50,"[1]; Mus musculus, Lymphocyte, read-out: 50%-inhibition concentration (IC50) in mouse allogenic MLR",0.045 µg/mL
same,IL-2 activity,[2]; 0.001 μg/ml,12.6 U/ml
same,IL-2 activity,[2]; 0.01 μg/ml,10.2 U/ml
same,IL-2 activity,[2]; 0.1 μg/ml,9.5 U/ml
same,IL-2 activity,[2]; 1 μg/ml,8.3 U/ml
same,inhibition at 0.001 µg/mL,[2]; [6],6.7%
same,inhibition at 0.01 µg/mL,[2]; [7],24.4%
same,inhibition at 0.1 µg/mL,[2]; [8],29.6%
same,inhibition at 1 µg/mL,[2]; [9],38.5%
same,IL-3 activity,[3]; 0.001 μg/ml,23.8 U/ml
same,IL-3 activity,[3]; 0.01 μg/ml,23.4 U/ml
same,IL-3 activity,[3]; 0.1 μg/ml,23.3 U/ml
same,IL-3 activity,[3]; 1 μg/ml,20.0 U/ml
same,inhibition at 0.001 µg/mL,[3]; [6],2.9%
same,inhibition at 0.01 µg/mL,[3]; [7],4.5%
same,inhibition at 0.1 µg/mL,[3]; [8],4.9%
same,inhibition at 1 µg/mL,[3]; [9],18.4%
CCCCCCCCCCCCC/C=C/C[C@@H](O)[C@H](O)[C@@](N)(CO)C(=O)O [potassium salt of compound of Example 5],3H-thymidine uptake,"[1]; 0.0001 μg/ml, Table 1B",5622 ± 898 cpm
same,Suppression,"[1]; 0.0001 μg/ml, Table 1B",0%
same,3H-thymidine uptake,"[1]; 0.001 μg/ml, Table 1B",4984 ± 3755 cpm
same,Suppression,"[1]; 0.001 μg/ml, Table 1B",7.5%
same,3H-thymidine uptake,"[1]; 0.01 μg/ml, Table 1B",1324 ± 16 cpm
same,Suppression,"[1]; 0.01 μg/ml, Table 1B",85.5%
same,3H-thymidine uptake,"[1]; 0.1 μg/ml, Table 1B",787 ± 257 cpm
same,Suppression,"[1]; 0.1 μg/ml, Table 1B",97.0%
same,3H-thymidine uptake,"[1]; 1 μg/ml, Table 1B",783 ± 28 cpm
same,Suppression,"[1]; 1 μg/ml, Table 1B",97.1%
CCCCCCCCCCCCC/C=C/C[C@@H](O)[C@H](O)[C@@](N)(CO)C(=O)O [sodium salt of the compound of Example 5],suppressive activity of the sodium salt relative to that of the compound of Example 5,[1]; Table 1B,almost the equivalent suppressive activity
same,"induction of allo-reactive cytotoxic T cells, sodium salt relative to the compound of Example 5 (in words)",[4],suppressive activity almost equivalent to that of the compound of Example 5 other than sodium salt
same,"Allogenic cell-specific antibody in serum, suppression",[5]; [10],6.0%
same,"Allogenic cell-specific antibody in serum, titer",[5]; [10],236 ± 76
same,"Allogenic cell-specific antibody in serum, suppression",[5]; [11],39.4%
same,"Allogenic cell-specific antibody in serum, titer",[5]; [11],152 ± 27
same,"Allogenic cell-specific antibody in serum, suppression",[5]; [12],50.3%
same,"Allogenic cell-specific antibody in serum, titer",[5]; [12],94 ± 14
same,"Allogenic cell-specific antibody in serum, suppression",[5]; [13],68.5%
same,"Allogenic cell-specific antibody in serum, titer",[5]; [13],79 ± 50
same,"Allogenic cell-specific antibody in serum, suppression",[5]; [14],73.5%
same,"Allogenic cell-specific antibody in serum, titer",[5]; [14],50 ± 4
same,"Allogenic cell-specific antibody in serum, suppression",[5]; [15],84.1%
same,"Allogenic cell-specific antibody in serum, titer",[5]; [15],40 ± 23
same,"Allogenic cell-specific antibody in serum, suppression",[5]; [16],88.9%
same,"Allogenic cell-specific antibody in serum, titer",[5]; [16],21 ± 8
same,"Allogenic cell-specific antibody in serum, suppression",[5]; [17],81.7%
same,"Allogenic cell-specific antibody in serum, titer",[5]; [17],46 ± 11
same,"production of allo-specific cytotoxic antibody, sodium salt relative to the compound of Example 5 (in words)",[5]; Table 10E,suppressive activity almost equivalent to that of the compound of Example 5 other than sodium salt

# Reference: patent publication US5068247A, “2-aminopentanoic acid compounds and their use as immunosuppressants” (priority 1989, dated 1991)
